Measured values as given in patent US20250205177A1, “HONEYBEE ANTIDOTE COMPOSITION” (priority 2023, published 2025).

Legend:
[1] = test system: honeybee colonies used for melon pollination; experiment: Field experiment in melon greenhouses: colony strength factors; type: in vivo, honeybees
Protocol: The impact observed when adding 100 ppm of curcumin to greenhouses for growing melons was assessed. Thirty greenhouses owned by three farmers were used in this study. While one group of honeybees was given a solution supplemented with 100 ppm of curcumin (CU100), the control hives were given only 50% sugar syrup. Colony strength factors were measured every 10 days.

[2] = test system: newly emerged honeybees (nurse bees) poisoned by carbaryl; experiment: Curcumin feeding of newly emerged (nurse) honeybees topically poisoned by carbaryl; type: in vivo; conditions: for mortality rate: nurse bees, indoor feeding
Protocol: (§1) […] These experiments were performed separately on newly emerged honeybees and foragers. While 0.063 ug of an insecticide was administered to the chest of each newly emerged honeybee, 0.11 ug of the insecticide was applied to each forager bee. The intoxicated honeybees were exposed to carbaryl and then fed supplementary food. While the control group consumed only sugar syrup, the experimental group consumed supplementary food containing curcumin. All honeybee groups were fed for 48 hours under controlled laboratory conditions.

[3] = test system: detoxification enzymes (oxidases) of honeybees; experiment: Gene expression / activity of detoxification enzymes 24 hours after carbaryl exposure; type: in vivo; conditions: 200 ppm curcumin
Protocol: FIGS. 8 and 9 show graphs for explaining gene expression analysis of detoxification enzymes in SU (50% sugar syrup), CU (50% sugar syrup +200 ppm of curcumin), and the control group (ACET, exposed to only 2 ul of acetone and given sugar), 24 hours after being exposed to carbaryl.

[4] = test system: foragers (field bees) poisoned by carbaryl; experiment: Curcumin feeding of forager (field) bees topically poisoned by carbaryl; type: in vivo, honeybees; conditions: indoor feeding
Protocol: as §1

[5] = test system: honeybees (Apis mellifera) chronically exposed to carbaryl; experiment: Long-term indoor feeding with chronic oral exposure to carbaryl; type: in vivo; conditions: 100 ppm curcumin; for mortality rate of honeybees: 10 days
Description: FIG. 4 is a graph of a Kaplan-Meier survival curve for test honeybees (Apis mellifera) chronically exposed to 2.5 and 5 ppm of carbaryl through oral exposure.
FIGS. 5A and 5B show graphs of the mortality rate of honeybees for 10 days after being chronically exposed to 2.5 ppm (5A) and 5 ppm (5B) of carbaryl.

[6] = 100 ppm curcumin, melon greenhouses at Seongju, long-term

## COc1cc(/C=C/C(=O)CC(=O)/C=C/c2ccc(O)c(OC)c2)ccc1O [curcumin]
[1]; 100 ppm curcumin compared with only sucrose solution
  rate of hive weight reduction: lower
[1]; [6]
  number of both adult and larval honeybees: tended to increase
  weight of honey storage (honey): no change
[1]; group treated with 100 ppm curcumin
  activities of honeybees in outdoor experiments: excellent
[2]; curcumin at varying concentrations after carbaryl exposure
  mortality rate of nurse bees compared with control (in words): noticeable reduction
[2]; 50 ppm curcumin, reduced from 80
  mortality rate: 50
[2]; 90 ppm curcumin, from 80
  mortality rate: 33
[2]; 100 ppm curcumin, reduced from 80
  mortality rate: 24
[2]; 110 ppm curcumin, from 80
  mortality rate: 34
[3]
  activity of the detoxification enzymes: even higher level
[4]; 50 ppm curcumin, reduced from 35
  mortality rate: 24
[4]; 90 ppm curcumin, from 35
  mortality rate: 24
[4]; 100 ppm curcumin, reduced from 35
  mortality rate: 18
[4]; 110 ppm curcumin, from 35
  mortality rate: 24
[5]; Kaplan-Meier, 2.5 and 5 ppm carbaryl oral
  survival rate of honeybees in exposure experiments to carbaryl: highest
[5]; chronic exposure to 2.5 ppm carbaryl, control 38%
  mortality rate of honeybees: 21%
[5]; chronic exposure to 5 ppm carbaryl, control 78%
  mortality rate of honeybees: 55%
